Experimental data published in patent US12441703B2, “Carboxamides as modulators of sodium channels” (VERTEX PHARMACEUTICALS INCORPORATED, priority 2019, dated 2025).

Each compound was assayed against human NaV 1.8 (Homo sapiens, UniProt Q9Y5Y9) (assay: E-VIPR assay for detecting and measuring NaV inhibition properties). Conditions: E-VIPR assay conducted in the presence of human serum; HEK cells expressing truncated human NaV 1.8; read-out: IC50.
Format: cell-based
How it was run: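 Membrane-potential (coumarin/oxonol) readout after 10 s of 10 Hz biphasic electrical stimulation on E-VIPR. Compounds: 11-point 3-fold dilutions, […], 0.625% DMSO, 30 min at room temperature, human serum optional. Cells: HEK expressing truncated human NaV1.8 co-transduced with KIR2.1.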

human NaV 1.8, sequence (Q9Y5Y9 whole entry, looked up, the tested form may be a part): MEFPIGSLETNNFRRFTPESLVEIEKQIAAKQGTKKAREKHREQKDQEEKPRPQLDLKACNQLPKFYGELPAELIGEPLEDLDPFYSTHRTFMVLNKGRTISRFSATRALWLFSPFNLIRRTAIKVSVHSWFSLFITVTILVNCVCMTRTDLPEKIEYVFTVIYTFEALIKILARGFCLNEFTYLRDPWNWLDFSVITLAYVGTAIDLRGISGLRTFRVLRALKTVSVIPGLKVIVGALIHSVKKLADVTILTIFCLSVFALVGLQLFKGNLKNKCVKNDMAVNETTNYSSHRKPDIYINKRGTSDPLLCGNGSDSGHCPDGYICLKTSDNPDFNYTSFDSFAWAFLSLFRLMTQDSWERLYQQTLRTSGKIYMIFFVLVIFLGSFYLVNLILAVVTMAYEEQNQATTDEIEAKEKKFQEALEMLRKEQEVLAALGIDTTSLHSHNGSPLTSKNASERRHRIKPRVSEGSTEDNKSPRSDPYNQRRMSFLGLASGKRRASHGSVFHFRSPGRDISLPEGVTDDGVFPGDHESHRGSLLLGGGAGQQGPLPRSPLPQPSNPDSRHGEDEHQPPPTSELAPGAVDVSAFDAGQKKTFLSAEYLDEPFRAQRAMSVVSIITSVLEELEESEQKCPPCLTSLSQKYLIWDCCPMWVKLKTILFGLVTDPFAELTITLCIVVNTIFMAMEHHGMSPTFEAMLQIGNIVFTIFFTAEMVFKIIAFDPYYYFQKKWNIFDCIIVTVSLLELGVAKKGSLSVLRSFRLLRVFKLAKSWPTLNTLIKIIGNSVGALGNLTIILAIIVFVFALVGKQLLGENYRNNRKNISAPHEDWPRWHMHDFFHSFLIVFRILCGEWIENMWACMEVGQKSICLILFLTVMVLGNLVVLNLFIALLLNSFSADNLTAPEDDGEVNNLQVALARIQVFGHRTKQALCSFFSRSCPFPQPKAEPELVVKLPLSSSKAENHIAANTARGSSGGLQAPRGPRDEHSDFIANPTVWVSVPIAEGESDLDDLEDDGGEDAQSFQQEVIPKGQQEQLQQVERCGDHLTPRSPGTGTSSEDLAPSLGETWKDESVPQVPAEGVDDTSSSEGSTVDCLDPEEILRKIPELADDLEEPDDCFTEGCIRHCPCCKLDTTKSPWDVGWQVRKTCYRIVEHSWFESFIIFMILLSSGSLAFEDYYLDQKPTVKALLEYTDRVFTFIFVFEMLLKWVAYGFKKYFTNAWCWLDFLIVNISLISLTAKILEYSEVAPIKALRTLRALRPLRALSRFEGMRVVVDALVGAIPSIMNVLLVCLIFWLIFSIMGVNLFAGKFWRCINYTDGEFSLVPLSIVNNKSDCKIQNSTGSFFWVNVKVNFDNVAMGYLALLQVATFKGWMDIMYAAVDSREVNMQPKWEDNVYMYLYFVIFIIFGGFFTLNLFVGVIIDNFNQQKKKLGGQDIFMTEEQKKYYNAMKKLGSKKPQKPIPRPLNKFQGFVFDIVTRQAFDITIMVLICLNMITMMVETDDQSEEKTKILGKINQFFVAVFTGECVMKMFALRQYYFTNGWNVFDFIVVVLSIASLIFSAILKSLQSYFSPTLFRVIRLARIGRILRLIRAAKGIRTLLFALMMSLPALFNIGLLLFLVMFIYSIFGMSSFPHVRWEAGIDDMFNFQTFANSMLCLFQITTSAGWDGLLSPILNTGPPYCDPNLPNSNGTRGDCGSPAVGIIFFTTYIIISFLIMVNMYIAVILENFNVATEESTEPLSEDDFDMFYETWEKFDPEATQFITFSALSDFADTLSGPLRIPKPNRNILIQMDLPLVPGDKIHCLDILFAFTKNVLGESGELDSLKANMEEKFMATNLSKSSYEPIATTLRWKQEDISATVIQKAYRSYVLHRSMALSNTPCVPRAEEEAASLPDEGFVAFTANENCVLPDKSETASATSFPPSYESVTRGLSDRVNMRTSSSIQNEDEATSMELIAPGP

With `[2H]C([2H])([2H])Oc1cc(OC(F)(F)F)ccc1Oc1ccc(C(F)(F)F)cc1C(=O)Nc1ccnc(C(N)=O)c1` [Compound 105, 4-[[2-[2-(trideuteriomethoxy)-4-(trifluoromethoxy)phenoxy]-5-(trifluoromethyl)benzoyl]amino]pyridine-2-carboxamide] as the compound, how does the IC50 read?
The IC50 was 73 nM.

How did the IC50 turn out when `[2H]C([2H])([2H])Oc1cc(OC(F)(F)F)ccc1Oc1ccc(C(F)(F)F)cc1C(=O)Nc1ccc(C(N)=O)nc1` [Compound 106] was run?
The IC50 was 1400 nM.

Which IC50 does the source give for `NC(=O)c1cc(NC(=O)c2ccc(C(F)(F)F)cc2Oc2ccc(F)c(Cl)c2)ccn1` [Compound 107, 4-[[2-(3-chloro-4-fluoro-phenoxy)-4-(trifluoromethyl)benzoyl]amino]pyridine-2-carboxamide] here?
Its IC50 is 2380 nM.

For `CC(C)Oc1ccc(Oc2cc(C(F)(F)F)ccc2C(=O)Nc2ccnc(C(N)=O)c2)cc1Cl` [Compound 108, 4-[[2-(3-chloro-4-isopropoxy-phenoxy)-4-(trifluoromethyl)benzoyl]amino]pyridine-2-carboxamide], which IC50 is on record?
The IC50 was over 3000 nM.

How did the IC50 turn out when `NC(=O)c1cc(NC(=O)c2ccc(C(F)(F)F)cc2Oc2ccc(OC3CCCCC3)cc2)ccn1` [Compound 109, 4-[[2-[4-(cyclohexoxy)phenoxy]-4-(trifluoromethyl)benzoyl]amino]pyridine-2-carboxamide] was run?
The IC50 was over 3000 nM.

How did the IC50 turn out when `NC(=O)c1cc(NC(=O)c2ccc(C(F)(F)F)cc2Oc2cccc(C3CCCCC3)c2)ccn1` [Compound 110, 4-[[2-(3-cyclohexylphenoxy)-4-(trifluoromethyl)benzoyl]amino]pyridine-2-carboxamide] was run?
The IC50 was over 3000 nM.

With `NC(=O)c1cc(NC(=O)c2ccc(C(F)(F)F)cc2Oc2ccc(F)cc2F)ccn1` [Compound 111, 4-[[2-(2,4-difluorophenoxy)-4-(trifluoromethyl)benzoyl]amino]pyridine-2-carboxamide] as the compound, how does the IC50 read?
Its IC50 is over 3000 nM.

For `CC(F)(F)c1cc(F)ccc1Oc1cc(C(F)(F)F)ccc1C(=O)Nc1ccnc(C(N)=O)c1` [Compound 112, 4-[[2-[2-(1,1-difluoroethyl)-4-fluoro-phenoxy]-4-(trifluoromethyl)benzoyl]amino]pyridine-2-carboxamide], which IC50 is on record?
Its IC50 is over 3000 nM.

With `Cc1cc(F)ccc1Oc1cc(C(F)(F)F)ccc1C(=O)Nc1ccnc(C(N)=O)c1` [Compound 113, 4-[[2-(4-fluoro-2-methyl-phenoxy)-4-(trifluoromethyl)benzoyl]amino]pyridine-2-carboxamide] as the compound, how does the IC50 read?
The IC50 was over 3000 nM.

`[2H]C([2H])([2H])Oc1cc(OC(F)(F)F)ccc1Oc1ccc2c(c1C(=O)Nc1ccnc(C(N)=O)c1)OC(F)(F)O2` [Compound 114, 4-[[2,2-difluoro-5-[2-(trideuteriomethoxy)-4-(trifluoromethoxy)phenoxy]-1,3-benzodioxole-4-carbonyl]amino]pyridine-2-carboxamide] was tested. Which IC50 did it give?
The IC50 was 510 nM.

`[2H]C([2H])([2H])Oc1cc(OC(F)(F)F)ccc1Oc1ccc2c(c1C(=O)Nc1ccc(C(N)=O)nc1)OC(F)(F)O2` [Compound 115] was tested. Which IC50 did it give?
The IC50 was over 3000 nM.

With `[2H]C([2H])([2H])Oc1cc(OC(F)(F)F)ccc1Oc1ccc(C(F)(F)F)c(C)c1C(=O)Nc1ccc(C(N)=O)nc1` [Compound 116, 5-[[2-methyl-6-[2-(trideuteriomethoxy)-4-(trifluoromethoxy)phenoxy]-3-(trifluoromethyl)benzoyl]amino]pyridine-2-carboxamide] as the compound, how does the IC50 read?
The IC50 was 25 nM.

With `[2H]C([2H])([2H])Oc1cc(OC(F)(F)F)ccc1Oc1ccc(C(F)(F)F)c(C)c1C(=O)Nc1ccnc(C(N)=O)c1` [Compound 117] as the compound, how does the IC50 read?
Its IC50 is 2 nM.

`COc1c(Oc2ccc(C(F)(F)F)c(F)c2C(=O)Nc2ccc(C(N)=O)nc2)ccc(F)c1F` [Compound 118, 5-[[6-(3,4-difluoro-2-methoxy-phenoxy)-2-fluoro-3-(trifluoromethyl)benzoyl]amino]pyridine-2-carboxamide] was tested. Which IC50 did it give?
Its IC50 is 695 nM.

With `COc1cc(OC(F)(F)F)ccc1Oc1cc(Br)cc(F)c1C(=O)Nc1ccnc(C(N)=O)c1` [Compound 119, 4-[[4-bromo-2-fluoro-6-[2-methoxy-4-(trifluoromethoxy)phenoxy]benzoyl]amino]pyridine-2-carboxamide] as the compound, how does the IC50 read?
The IC50 was 8 nM.

How did the IC50 turn out when `COc1c(Oc2ccc(C(F)(F)F)c(C)c2C(=O)Nc2ccnc(C(N)=O)c2)ccc(F)c1F` [Compound 120, 4-[[6-(3,4-difluoro-2-methoxy-phenoxy)-2-methyl-3-(trifluoromethyl)benzoyl]amino]pyridine-2-carboxamide] was run?
Its IC50 is 20 nM.

For `Cc1c(C(F)(F)F)ccc(Oc2ccc(OC(C)C)c(F)c2F)c1C(=O)Nc1ccnc(C(N)=O)c1` [Compound 121, 4-[[6-(2,3-difluoro-4-isopropoxy-phenoxy)-2-methyl-3-(trifluoromethyl)benzoyl]amino]pyridine-2-carboxamide], which IC50 is on record?
The IC50 was 16 nM.

For `Cc1c(C(F)(F)F)ccc(Oc2ccc(F)cc2Cl)c1C(=O)Nc1ccnc(C(N)=O)c1` [Compound 122, 4-[[6-(2-chloro-4-fluoro-phenoxy)-2-methyl-3-(trifluoromethyl)benzoyl]amino]pyridine-2-carboxamide], which IC50 is on record?
The IC50 was 25 nM.

With `Cc1c(C(F)(F)F)ccc(Oc2ccc(OC(F)(F)F)cc2)c1C(=O)Nc1ccnc(C(N)=O)c1` [Compound 123, 4-[[2-methyl-6-[4-(trifluoromethoxy)phenoxy]-3-(trifluoromethyl)benzoyl]amino]pyridine-2-carboxamide] as the compound, how does the IC50 read?
Its IC50 is 53 nM.

For `Cc1c(C(F)(F)F)ccc(Oc2ccc(OC(C)C)c(Cl)c2)c1C(=O)Nc1ccnc(C(N)=O)c1` [Compound 124, 4-[[6-(3-chloro-4-isopropoxy-phenoxy)-2-methyl-3-(trifluoromethyl)benzoyl]amino]pyridine-2-carboxamide], which IC50 is on record?
The IC50 was 16 nM.

For `Cc1c(C(F)(F)F)ccc(Oc2ccc(F)c3c2OCC3)c1C(=O)Nc1ccnc(C(N)=O)c1` [Compound 125, 4-[[6-[(4-fluoro-2,3-dihydrobenzofuran-7-yl)oxy]-2-methyl-3-(trifluoromethyl)benzoyl]amino]pyridine-2-carboxamide], which IC50 is on record?
The IC50 was 140 nM.

How did the IC50 turn out when `Cc1c(C(F)(F)F)ccc(Oc2ccc(F)c(F)c2)c1C(=O)Nc1ccnc(C(N)=O)c1` [Compound 126, 4-[[6-(3,4-difluorophenoxy)-2-methyl-3-(trifluoromethyl)benzoyl]amino]pyridine-2-carboxamide] was run?
The IC50 was 180 nM.

How did the IC50 turn out when `Cc1c(C(F)(F)F)ccc(Oc2ccc(F)c(Cl)c2)c1C(=O)Nc1ccnc(C(N)=O)c1` [Compound 127, 4-[[6-(3-chloro-4-fluoro-phenoxy)-2-methyl-3-(trifluoromethyl)benzoyl]amino]pyridine-2-carboxamide] was run?
The IC50 was 150 nM.

`Cc1c(C(F)(F)F)ccc(Oc2ccc(OC(F)(F)F)cc2F)c1C(=O)Nc1ccnc(C(N)=O)c1` [Compound 128, 4-[[6-[2-fluoro-4-(trifluoromethoxy)phenoxy]-2-methyl-3-(trifluoromethyl)benzoyl]amino]pyridine-2-carboxamide] was tested. Which IC50 did it give?
Its IC50 is 83 nM.

With `Cc1cc(F)ccc1Oc1ccc(C(F)(F)F)c(C)c1C(=O)Nc1ccnc(C(N)=O)c1` [Compound 129, 4-[[6-(4-fluoro-2-methyl-phenoxy)-2-methyl-3-(trifluoromethyl)benzoyl]amino]pyridine-2-carboxamide] as the compound, how does the IC50 read?
Its IC50 is 20 nM.

How did the IC50 turn out when `CCOc1ccc(Oc2ccc(C(F)(F)F)c(C)c2C(=O)Nc2ccnc(C(N)=O)c2)c(F)c1F` [Compound 130, 4-[[6-(4-ethoxy-2,3-difluoro-phenoxy)-2-methyl-3-(trifluoromethyl)benzoyl]amino]pyridine-2-carboxamide] was run?
Its IC50 is 40 nM.

For `Cc1c(C(F)(F)F)ccc(Oc2ccc(F)cc2F)c1C(=O)Nc1ccnc(C(N)=O)c1` [Compound 131, 4-[[6-(2,4-difluorophenoxy)-2-methyl-3-(trifluoromethyl)benzoyl]amino]pyridine-2-carboxamide], which IC50 is on record?
The IC50 was 155 nM.

`Cc1c(C(F)(F)F)ccc(Oc2ccc(OC(C)C)cc2F)c1C(=O)Nc1ccnc(C(N)=O)c1` [Compound 132, 4-[[6-(2-fluoro-4-isopropoxy-phenoxy)-2-methyl-3-(trifluoromethyl)benzoyl]amino]pyridine-2-carboxamide] was tested. Which IC50 did it give?
The IC50 was over 3000 nM.

For `Cc1cc(OC(F)(F)F)ccc1Oc1ccc(C(F)(F)F)c(C)c1C(=O)Nc1ccnc(C(N)=O)c1` [Compound 133, 4-[[2-methyl-6-[2-methyl-4-(trifluoromethoxy)phenoxy]-3-(trifluoromethyl)benzoyl]amino]pyridine-2-carboxamide], which IC50 is on record?
Its IC50 is 9 nM.

For `COc1cc(Cl)ccc1Oc1ccc(C(F)(F)F)c(C)c1C(=O)Nc1ccnc(C(N)=O)c1` [Compound 134, 4-[[6-(4-chloro-2-methoxy-phenoxy)-2-methyl-3-(trifluoromethyl)benzoyl]amino]pyridine-2-carboxamide], which IC50 is on record?
Its IC50 is 120 nM.

`Cc1c(C(F)(F)F)ccc(Oc2ccc(Cl)cc2F)c1C(=O)Nc1ccnc(C(N)=O)c1` [Compound 135, 4-[[6-(4-chloro-2-fluoro-phenoxy)-2-methyl-3-(trifluoromethyl)benzoyl]amino]pyridine-2-carboxamide] was tested. Which IC50 did it give?
The IC50 was 470 nM.

For `Cc1cc(Cl)ccc1Oc1ccc(C(F)(F)F)c(C)c1C(=O)Nc1ccnc(C(N)=O)c1` [Compound 136, 4-[[6-(4-chloro-2-methyl-phenoxy)-2-methyl-3-(trifluoromethyl)benzoyl]amino]pyridine-2-carboxamide], which IC50 is on record?
The IC50 was 140 nM.

With `COc1cc(F)ccc1Oc1ccc(C(F)(F)F)c(C)c1C(=O)Nc1ccnc(C(N)=O)c1` [Compound 137, 4-[[6-(4-fluoro-2-methoxy-phenoxy)-2-methyl-3-(trifluoromethyl)benzoyl]amino]pyridine-2-carboxamide] as the compound, how does the IC50 read?
The IC50 was 54 nM.

Which IC50 does the source give for `Cc1c(C(F)(F)F)ccc(Oc2ccc(OC(F)(F)F)c(Cl)c2)c1C(=O)Nc1ccnc(C(N)=O)c1` [Compound 138, 4-[[6-[3-chloro-4-(trifluoromethoxy)phenoxy]-2-methyl-3-(trifluoromethyl)benzoyl]amino]pyridine-2-carboxamide] here?
Its IC50 is 20 nM.

With `Cc1c(C(F)(F)F)ccc(Oc2ccc(OC(F)(F)F)c(F)c2)c1C(=O)Nc1ccnc(C(N)=O)c1` [Compound 139, 4-[[6-[3-fluoro-4-(trifluoromethoxy)phenoxy]-2-methyl-3-(trifluoromethyl)benzoyl]amino]pyridine-2-carboxamide] as the compound, how does the IC50 read?
The IC50 was 33 nM.
